Measured values as given in paper PMC8494914, “Elexacaftor is a CFTR potentiator and acts synergistically with ivacaftor during acute and chronic treatment” (Scientific Reports, 2021).

How the values were obtained:
R117H-CFTR = target: T1, R117H-CFTR (Homo sapiens, UniProt P13569, R117H); test: Ussing chamber transepithelial current, acute potentiation; format: cell-based
T1 construct: R117H-CFTR expressed in FRT cells

[1] = target: T2, cystic fibrosis transmembrane conductance regulator (CFTR) (Homo sapiens, UniProt P13569); test: Ussing chamber transepithelial current, concentration-response of acute potentiation; format: cell-based
T2 construct: endogenous CFTR in non-CF human nasal epithelial cells
T2 sequence (P13569 whole entry): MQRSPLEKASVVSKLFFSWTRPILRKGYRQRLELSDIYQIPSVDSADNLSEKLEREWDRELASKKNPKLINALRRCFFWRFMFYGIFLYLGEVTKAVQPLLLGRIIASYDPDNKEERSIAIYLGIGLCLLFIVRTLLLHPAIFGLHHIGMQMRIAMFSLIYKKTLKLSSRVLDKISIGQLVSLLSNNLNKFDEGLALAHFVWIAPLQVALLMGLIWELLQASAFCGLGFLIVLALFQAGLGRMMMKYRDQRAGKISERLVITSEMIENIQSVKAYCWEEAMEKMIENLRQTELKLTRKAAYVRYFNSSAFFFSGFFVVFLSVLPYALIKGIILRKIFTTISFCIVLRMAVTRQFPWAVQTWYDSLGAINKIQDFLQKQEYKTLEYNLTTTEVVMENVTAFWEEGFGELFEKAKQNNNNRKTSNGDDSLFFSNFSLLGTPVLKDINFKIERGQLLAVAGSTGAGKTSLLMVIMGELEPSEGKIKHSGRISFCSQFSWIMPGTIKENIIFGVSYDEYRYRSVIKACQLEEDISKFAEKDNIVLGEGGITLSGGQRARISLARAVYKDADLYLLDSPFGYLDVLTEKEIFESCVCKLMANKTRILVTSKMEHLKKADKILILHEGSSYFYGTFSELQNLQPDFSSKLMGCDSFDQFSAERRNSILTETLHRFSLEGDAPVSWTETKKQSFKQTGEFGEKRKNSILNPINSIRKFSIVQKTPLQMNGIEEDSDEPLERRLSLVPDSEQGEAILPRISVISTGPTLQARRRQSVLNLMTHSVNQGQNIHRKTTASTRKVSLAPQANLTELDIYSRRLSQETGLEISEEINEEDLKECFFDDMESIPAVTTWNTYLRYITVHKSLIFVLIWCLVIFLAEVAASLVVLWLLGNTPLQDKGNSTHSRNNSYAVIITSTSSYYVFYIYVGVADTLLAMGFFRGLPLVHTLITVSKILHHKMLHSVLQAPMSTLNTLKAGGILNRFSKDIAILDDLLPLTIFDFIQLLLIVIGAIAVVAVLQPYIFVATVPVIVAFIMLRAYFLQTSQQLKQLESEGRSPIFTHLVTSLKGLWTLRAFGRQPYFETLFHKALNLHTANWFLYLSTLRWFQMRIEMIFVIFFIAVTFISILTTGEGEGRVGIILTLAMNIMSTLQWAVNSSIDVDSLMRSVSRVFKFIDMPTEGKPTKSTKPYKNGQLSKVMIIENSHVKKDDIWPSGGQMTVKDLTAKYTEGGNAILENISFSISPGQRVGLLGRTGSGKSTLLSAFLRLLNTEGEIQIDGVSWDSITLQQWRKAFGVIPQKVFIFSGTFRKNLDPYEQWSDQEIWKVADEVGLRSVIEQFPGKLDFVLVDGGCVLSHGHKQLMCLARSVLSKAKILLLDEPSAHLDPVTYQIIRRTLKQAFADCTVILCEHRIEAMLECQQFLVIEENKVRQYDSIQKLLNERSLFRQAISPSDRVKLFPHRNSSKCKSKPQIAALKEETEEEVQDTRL

T1 sequence (P13569 whole entry R117H): as the sequence (P13569 whole entry) above, with R117H counted along it

| SMILES | Ussing chamber transepithelial current, acute potentiation (R117H-CFTR) | EC50 [1] [nM] |
| --- | --- | --- |
| Cc1nn(C)cc1S(=O)(=O)NC(=O)c1ccc(-n2ccc(OCC(C)(C)C(F)(F)F)n2)nc1N1C[C@@H](C)CC1(C)C [VX-445, elexacaftor] | We also found that VX-445 potentiates R117H-CFTR expressed in FRT cells | 1.5 ± 1.4 |
| CC(C)(C)c1cc(C(C)(C)C)c(NC(=O)c2c[nH]c3ccccc3c2=O)cc1O [VX-770, ivacaftor] | VX-445 and VX-770 did not exhibit the same high degree of synergy in potentiating R117H-CFTR |  |
